# Measured values published in patent publication US20230404968A1, “Gamma Butyrolactone Derivatives for Inducing Differentiation in Neoplastic Cells” (priority 2022, published 2023).
# Legend:
# HL60 cells [1] = assay: Induction of differentiation: gene expression (qRT-PCR) and CD surface markers (flow cytometry), HL60; format: cell-based; conditions: HL60 cell line; confirmed by expression of FLT3, PU1, CEBPA genes and CD3, CD20, CD14, CD33, CD16, CD56 surface markers
# Protocol: (§1) Cell culture methods and treatments.
# (§2) Flow cytometry. […] In addition, treated cells were incubated with antibody-dye conjugate against CD3, CD20, CD16, CD56, CD14, and CD33 for surface antigen analysis. Thereafter the samples were analyzed by flow cytometer (Attune NxT, Life Technologies-Thermo Fisher Scientific, USA). Treatment with 5 μL H2O2 and 1 μM ATRA were used as the positive controls for apoptosis and necrosis and surface antigen analyses, respectively. Data were analyzed with FlowJo software.
# (§3) RNA isolation and qRT-PCR. […] The concentration of extracted RNA was measured via spectrophotometer (EPOCH, BioTek, USA) at 260 nm. The quality of isolated RNA was further evaluated via agarose gel electrophoresis indicating two distinctive bands. Isolated RNA was then converted to cDNA via a commercial kit according to the manufacturer's instructions. The primers were designed with AlleleID software and Primer3 algorithm and then double-checked via the BLAST algorithm. cDNA samples were then prepared for analysis using a commercial kit and analyzed with qRT-PCR machine (Applied Biosystems-Thermo Fisher Scientific, USA).
# HL60 cells [2] = assay: Cell viability (MTS) assay, HL60; conditions: for cellular viability (MTS): HL60 cancer cells, at the given concentrations, 24, 48, and 72 hours; for toxicity: HL60 cell line, at a concentration of induction of cellular differentiation (FIGS. 9B, 10B)
# Protocol: (§4) Cell culture methods and treatments. HL60 and KG1a cell lines were cultivated in RPMI 1640 (Sigma-USA) culture medium supplemented with 1% penicillin/streptomycin (Gibco-USA), 10% and 20% fetal bovine serum (Gibco-USA) for HL60 and KG1a cell lines, respectively, and 0.5% Glutamax (Gibco-USA) for HL60 cell line. The cells were incubated at 37° C., 5% CO2, and 90% humidity. The stock solution (Mol/L) of HSL-C8, HSL-C12, and A-factor were prepared in 0.1% (v/v) and 0.2% (v/v) and 0.2% (v/v) DMSO, respectively, as a vehicle and stored at −80° C. Different dilutions of HSL-C8, HSL-C12, A-factor, and GBL were prepared from the stock solution, and […] (<4% of the total volume) of each were added to the wells containing 100 μL of cell suspension (10000 and 20000 HL60 and KG1a cells per well). 0.1% and 0.2% DMSO were used as the negative control for HSL-C8, HSL-C12, and A-factor for each test. Culture medium were used as the negative control for GBL.
# (§5) Cell viability assay. The cell viability was evaluated via (MTS) assay. HL60, KG1a, and PBMC cells were treated with HSL-C8, HSL-C12, A-factor, and GBL in 96-well plates for 24, 48, and 72 hours. Thereafter, […], of MTS/PMS solution were added to each well and the cells were incubated for 90 minutes. The optical density (OD) of samples was measured via spectrophotometer (EPOCH, BioTek, USA) at 490 nm and the viability of cells was calculated via the following formula:
# (§6) Cell viability (%)=[ODsample/ODcontrol]×100
# [3] = tested on: peripheral blood mononuclear cells (PBMC); assay: Cell viability (MTS) assay, PBMC; format: cell-based; conditions: normal cells (PBMC), at the given concentrations, 24, 48, and 72 hours
# Protocol: Cell viability assay. The cell viability was evaluated via (MTS) assay.
# as §6
# KG1a cells [4] = assay: Cell viability (MTS) assay, KG1a; conditions: for cellular viability (MTS): KG1a cancer cells, at the given concentrations, 24, 48, and 72 hours; for toxicity: KG1a cell line, at a concentration of induction of cellular differentiation (FIGS. 9C, 10C)
# Protocol: as §4, §5, §6
# KG1a cells [5] = assay: Induction of differentiation: gene expression (qRT-PCR) and CD surface markers (flow cytometry), KG1a; format: cell-based; conditions: KG1a cell line; confirmed by expression of FLT3, PU1, CEBPA genes and CD3, CD20, CD14, CD33, CD16, CD56 surface markers
# Protocol: as §1, §2, §3
# HL60 cells [6] = assay: Apoptosis/necrosis by flow cytometry, Annexin-V-FITC/PI staining, HL60; format: cell-based; conditions: for apoptosis (early and late) and necrosis: HL60 cells
# Protocol: as §1, §2
# KG1a cells [7] = assay: Apoptosis/necrosis by flow cytometry, Annexin-V-FITC/PI staining, KG1a; format: cell-based
# Protocol: as §1, §2
# HL60 cells [8] = assay: Wright-Giemsa staining and light microscopy (morphology), HL60; format: cell-based
# Protocol: as §1
# (§7) Wright-Giemsa staining. HL60 and KG1a cells treated HSL-C8 and HSL-C12 were concentrated and then fixed on the slides with absolute ethanol prior to Wright-Giemsa staining. After staining for four minutes the 1 mL of tap water was added to the slides. After four minutes, they were washed with tap water, air-dried, and evaluated with a light microscopy.
# KG1a cells [9] = assay: Wright-Giemsa staining and light microscopy (morphology), KG1a; format: cell-based
# Protocol: as §1, §7
SMILES,terminal cellular differentiation (HL60 cells [1]),cellular viability (MTS) (HL60 cells [2]),toxicity (HL60 cells [2]),cellular viability (MTS) [3],cellular viability (MTS) (KG1a cells [4]),toxicity (KG1a cells [4]),terminal cellular differentiation (KG1a cells [5]),further results
"O=C1CCCO1 [GBL, Gamma butyrolactone]",induced terminal cellular differentiation,do not decrease the cellular viability of treated cancer cells and normal cells (PBMC) significantly,minimal toxicity,do not decrease the cellular viability of treated cancer cells and normal cells (PBMC) significantly,do not decrease the cellular viability of treated cancer cells and normal cells (PBMC) significantly,minimal toxicity,induced terminal cellular differentiation,"apoptosis (early and late) and necrosis (HL60 cells [6]; 300 μM of GBL, 48 hours (FIG. 11)): minimal to no apoptosis (early and late) and necrosis; apoptosis (early and late) and necrosis (KG1a cells [7]; KG1a cells, 300 μM of GBL, 48 hours (FIG. 11)): minimal to no apoptosis (early and late) and necrosis"
CCCCCCCCCC(=O)CC(=O)N[C@H]1CCOC1=O [HSL-C12],induced terminal cellular differentiation,do not decrease the cellular viability of treated cancer cells and normal cells (PBMC) significantly,,do not decrease the cellular viability of treated cancer cells and normal cells (PBMC) significantly,do not decrease the cellular viability of treated cancer cells and normal cells (PBMC) significantly,,induced terminal cellular differentiation,"change of cell morphology (HL60 cells [8]; 100 μM and 150 μM of HSL-C12, 24 and 48 hours (FIG. 8A)): neutrophil and macrophage-like cells, with lobulated nuclei and expanded cytoplasm; change of cell morphology (KG1a cells [9]; 100 μM and 150 μM of HSL-C12, 24 and 48 hours (FIG. 8B)): neutrophil and macrophage-like cells, with lobulated nuclei and expanded cytoplasm; apoptosis (early and late) and necrosis (HL60 cells [6]; 50 and 100 μM of HSL-C12, 24 hours (FIG. 4A)): minimal to no apoptosis (early and late) and necrosis; apoptosis (early and late) and necrosis (HL60 cells [6]; 50 and 100 μM of HSL-C12, 48 hours (FIG. 4B)): minimal to no apoptosis (early and late) and necrosis; apoptosis (early and late) and necrosis (KG1a cells [7]; KG1a cells, 100 μM of HSL-C12, 24 hours (FIG. 4C)): minimal to no apoptosis (early and late) and necrosis; apoptosis (early and late) and necrosis (KG1a cells [7]; KG1a cells, 100 μM of HSL-C12, 48 hours (FIG. 4D)): minimal to no apoptosis (early and late) and necrosis; apoptosis and necrosis (KG1a cells [7]; KG1a cells, 150 μM of HSL-C12, 24 hours (FIG. 4C)): minimal apoptosis and necrosis; apoptosis (early and late) and necrosis (KG1a cells [7]; KG1a cells, 150 μM of HSL-C12, 48 hours (FIG. 4D)): moderate apoptosis (early and late) and necrosis"
"CC(C)CCCCC(=O)C1C(=O)OCC1CO (stereo not drawn) [A-factor, 2-isocapryloyl-3R-hydroxymethyl-gamma-butyrolactone]",induced terminal cellular differentiation,do not decrease the cellular viability of treated cancer cells and normal cells (PBMC) significantly,minimal toxicity,do not decrease the cellular viability of treated cancer cells and normal cells (PBMC) significantly,do not decrease the cellular viability of treated cancer cells and normal cells (PBMC) significantly,minimal toxicity,induced terminal cellular differentiation,
CCCCCC(=O)CC(=O)N[C@H]1CCOC1=O [HSL-C8],induced terminal cellular differentiation,do not decrease the cellular viability of treated cancer cells and normal cells (PBMC) significantly,,do not decrease the cellular viability of treated cancer cells and normal cells (PBMC) significantly,do not decrease the cellular viability of treated cancer cells and normal cells (PBMC) significantly,,induced terminal cellular differentiation,"change of cell morphology (HL60 cells [8]; 50 μM and 100 μM of HSL-C8, 48 and 72 hours (FIG. 7A)): neutrophil and macrophage-like cells, with lobulated nuclei and expanded cytoplasm; change of cell morphology (KG1a cells [9]; 100 μM and 200 μM of HSL-C8, 48 and 72 hours (FIG. 7B)): neutrophil and macrophage-like cells, with lobulated nuclei and expanded cytoplasm; concentrations that cause minimal to no apoptosis (HL60 cells [6]; human): ≤ 100 µM; concentrations that cause minimal to no apoptosis (KG1a cells [7]; human): ≤ 100 µM"
